From paper PMC4742234, “Screening of Drug Metabolizing Enzymes for the Ginsenoside Compound K In Vitro: An Efficient Anti-Cancer Substance Originating from Panax Ginseng” (PLoS ONE, 2016)
“Also recorded” adds a separate entry of the source.

Legend:
[1] = test system: CYP1A2, CYP2A6, CYP2D6, CYP2E1, CYP2C19; assay: Effect of the other specific inhibitors on CK metabolism in HLMs; format: in vitro ADME, human; details: CK 50 μM, furafylline, tranylcypromine, quinidine, ticlopidine 1 μM, chlormethiazole 5 μM
Experimental: (§1) The method was conducted according to our previous study with some modifications. The CYP isoform-specific probe reactions used were phenacetin O-deethylation (for CYP1A2), coumarin 7-hydroxylation (for CYP2A6), tolbutamide 4-hydroxylation (for CYP2C9), metoprolol α-hydroxylation (for CYP2D6), chlorzoxazone 6-hydroxylation (for CYP2E1),S-Mephenytoin 4-hydroxylation (for CYP2C19), and midazolam 1-hydroxylation (for CYP3A4). The kinetic study of CK was conducted with HLMs. A 0.2 mL incubation mixture that consisted of CK (as a substrate), the HLMs (0.5 mg/mL) or CYP isoforms (10 pmol), and 0.1 M sodium phosphate buffer (pH 7.4) was pre-warmed for 5 min at 37°C. The reaction was initiated by the addition of 1 mg/mL triphosphopyridine nucleotide (NADPH). […]
(§2) To screen the specific CYP isoform responsible for the CK metabolism, we determined the inhibitory effect of specific inhibitors on the metabolism of CK in the HLMs as described in detail previously. […] The inhibitory effects of the above specific inhibitors on the metabolic clearance rate of CK were evaluated separately to screen the CYP isoforms responsible for the CK metabolism. The relative activity of the CYP isoforms was calculated by dividing the peak area of CK when incubated with the inhibitor by that of CK from the negative controls. […]

CYP3A4 = CYP3A4 (Homo sapiens, UniProt P08684); assay: Metabolic clearance rate of CK with recombinant CYP3A4 under ketoconazole; format: in vitro ADME; design: purchased Cypex Ltd. (U.K.); details: recombinant CYP3A4, CK 50 μM, ketoconazole 1 μM
CYP3A4, sequence (P08684 whole entry): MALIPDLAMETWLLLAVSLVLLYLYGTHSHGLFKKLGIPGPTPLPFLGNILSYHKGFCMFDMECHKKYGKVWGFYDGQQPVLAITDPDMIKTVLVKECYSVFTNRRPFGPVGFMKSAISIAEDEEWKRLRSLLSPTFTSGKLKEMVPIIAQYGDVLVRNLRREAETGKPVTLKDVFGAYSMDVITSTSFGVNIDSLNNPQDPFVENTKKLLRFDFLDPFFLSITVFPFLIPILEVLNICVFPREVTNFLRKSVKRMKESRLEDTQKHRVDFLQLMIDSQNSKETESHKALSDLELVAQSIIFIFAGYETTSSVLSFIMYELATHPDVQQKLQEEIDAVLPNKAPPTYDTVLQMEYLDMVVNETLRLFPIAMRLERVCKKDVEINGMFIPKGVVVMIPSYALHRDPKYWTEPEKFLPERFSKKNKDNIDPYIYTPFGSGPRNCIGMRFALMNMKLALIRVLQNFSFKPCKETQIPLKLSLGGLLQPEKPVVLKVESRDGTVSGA
Experimental: as §1, §2

## CC(C)=CCC[C@](C)(OC1O[C@H](CO)[C@@H](O)[C@H](O)[C@H]1O)[C@H]1CC[C@]2(C)[C@@H]1[C@H](O)C[C@@H]1[C@@]3(C)CC[C@H](O)C(C)(C)[C@@H]3CC[C@]12C (stereo partly drawn) [CK, 20-O-β-(D-glucopyranosyl)-20(S)-protopanaxadiol]
[1]
  effect of other specific inhibitors / CYP isoforms on CK metabolism: minimal or no effect; also recorded: no obvious inhibitory effects; also recorded: no significant inhibitory effects
CYP3A4
  MCR of CK, of that of the control: 13.2%
